Data reported in PMC7522982, “PKIS deep dive yields a chemical starting point for dark kinases and a cell active BRSK2 inhibitor” (Scientific Reports, 2020).

Legend:
MAP4K4/HGK = MAP4K4/HGK (Homo sapiens, UniProt O95819); experiment: Eurofins kinase enzymatic radiometric assay; format: biochemical; set-up: purchased Eurofins; settings: Km of ATP, 9-point curve in duplicate
Source text: (§1) Due to our interest in the activity of GW296115 on several understudied IDG kinases, we collected full dose–response curves for all wild type kinases inhibited ≥ 75% in the DiscoverX panel that were offered by Eurofins. Having data in orthogonal formats is a powerful way to confirm inhibitory activity and adds rigor to our results. Eurofins has kinase enzymatic radiometric assays for 35 of the kinases on this list (Table S2) and a kinase enzymatic LANCE assay for one additional kinase (MAP2K5/MEK5).
(§2) Eurofins kinase enzymatic radiometric assays were carried out at the Km of ATP in dose–response (9-pt curve in duplicate) for each kinase for which it was offered.

MAP3K9/MLK1 = MAP3K9/MLK1 (Homo sapiens, UniProt P80192); experiment: Eurofins kinase enzymatic radiometric assay; format: biochemical; set-up: purchased Eurofins; settings: Km of ATP, 9-point curve in duplicate
Source text: as §1, §2

DCLK3/DCAMKL3 = DCLK3/DCAMKL3 (Homo sapiens, UniProt Q9C098); experiment: Eurofins kinase enzymatic radiometric assay; format: biochemical; set-up: purchased Eurofins; settings: Km of ATP, 9-point curve in duplicate
Source text: as §1, §2

NUAK1/ARK5 = NUAK1/ARK5 (Homo sapiens, UniProt O60285); experiment: Eurofins kinase enzymatic radiometric assay; format: biochemical; set-up: purchased Eurofins; settings: Km of ATP, 9-point curve in duplicate
Source text: as §1, §2

PDGFRB = PDGFRB (Homo sapiens, UniProt P09619); experiment: Eurofins kinase enzymatic radiometric assay; format: biochemical; set-up: purchased Eurofins; settings: Km of ATP, 9-point curve in duplicate
Source text: as §1, §2

TNIK = TNIK (Homo sapiens, UniProt Q9UKE5); experiment: Eurofins kinase enzymatic radiometric assay; format: biochemical; set-up: purchased Eurofins; settings: Km of ATP, 9-point curve in duplicate
Source text: as §1, §2

MYLK/MLCK/smMLCK = MYLK/MLCK/smMLCK (Homo sapiens, UniProt Q15746); experiment: Eurofins kinase enzymatic radiometric assay; format: biochemical; set-up: purchased Eurofins; settings: Km of ATP, 9-point curve in duplicate
Source text: as §1, §2

BRSK2 = molecular target: T1, BRSK2 (Homo sapiens, UniProt Q8IWQ3); experiment: Eurofins kinase enzymatic radiometric assay; format: biochemical; set-up: purchased Eurofins; settings: Km of ATP, 9-point curve in duplicate
T1 sequence (Q8IWQ3 1-736): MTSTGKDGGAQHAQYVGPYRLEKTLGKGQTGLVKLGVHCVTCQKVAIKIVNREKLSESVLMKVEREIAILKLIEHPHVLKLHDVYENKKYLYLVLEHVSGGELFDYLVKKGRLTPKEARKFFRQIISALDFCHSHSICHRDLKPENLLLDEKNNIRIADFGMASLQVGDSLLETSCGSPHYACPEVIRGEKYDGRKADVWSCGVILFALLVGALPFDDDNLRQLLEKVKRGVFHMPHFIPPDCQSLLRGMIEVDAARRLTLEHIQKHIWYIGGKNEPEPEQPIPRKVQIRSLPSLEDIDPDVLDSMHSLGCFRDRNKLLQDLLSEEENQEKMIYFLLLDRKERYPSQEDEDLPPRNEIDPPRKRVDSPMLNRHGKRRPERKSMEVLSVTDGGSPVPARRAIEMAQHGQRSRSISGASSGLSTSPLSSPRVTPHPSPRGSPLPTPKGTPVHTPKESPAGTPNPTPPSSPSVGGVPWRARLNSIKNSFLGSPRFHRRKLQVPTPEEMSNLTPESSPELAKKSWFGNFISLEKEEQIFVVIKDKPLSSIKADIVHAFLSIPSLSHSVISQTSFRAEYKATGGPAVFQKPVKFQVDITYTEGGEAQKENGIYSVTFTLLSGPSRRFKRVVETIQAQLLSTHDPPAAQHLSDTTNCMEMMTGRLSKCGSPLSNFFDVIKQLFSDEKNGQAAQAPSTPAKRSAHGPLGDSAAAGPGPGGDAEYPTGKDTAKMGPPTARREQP
Source text: as §1, §2

BRSK1 = molecular target: T2, BRSK1 (Homo sapiens, UniProt Q8TDC3); experiment: Eurofins kinase enzymatic radiometric assay; format: biochemical; set-up: purchased Eurofins; settings: Km of ATP, 9-point curve in duplicate
T2 sequence (Q8TDC3 1-778): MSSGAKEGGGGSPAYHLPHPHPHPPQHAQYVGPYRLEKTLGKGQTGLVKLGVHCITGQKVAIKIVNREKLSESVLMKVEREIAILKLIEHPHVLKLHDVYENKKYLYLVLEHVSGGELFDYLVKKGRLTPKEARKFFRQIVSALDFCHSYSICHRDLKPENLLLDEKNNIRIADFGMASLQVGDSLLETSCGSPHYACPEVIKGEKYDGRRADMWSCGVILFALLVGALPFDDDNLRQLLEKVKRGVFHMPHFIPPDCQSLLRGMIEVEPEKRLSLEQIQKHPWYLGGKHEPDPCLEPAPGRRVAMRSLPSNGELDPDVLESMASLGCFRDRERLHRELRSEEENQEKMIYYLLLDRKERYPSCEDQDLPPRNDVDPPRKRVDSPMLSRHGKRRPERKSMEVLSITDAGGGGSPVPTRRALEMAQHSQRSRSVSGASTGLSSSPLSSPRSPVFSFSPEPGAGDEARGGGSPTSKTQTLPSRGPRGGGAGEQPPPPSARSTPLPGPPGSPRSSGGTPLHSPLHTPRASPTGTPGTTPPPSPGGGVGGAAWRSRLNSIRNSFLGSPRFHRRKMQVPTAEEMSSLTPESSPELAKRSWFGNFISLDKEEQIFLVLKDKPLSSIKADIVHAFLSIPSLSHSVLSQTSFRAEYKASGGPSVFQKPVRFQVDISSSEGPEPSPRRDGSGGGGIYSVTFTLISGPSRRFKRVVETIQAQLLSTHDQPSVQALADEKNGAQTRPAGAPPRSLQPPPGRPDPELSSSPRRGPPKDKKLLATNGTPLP
Source text: as §1, §2

AURKB = AURKB (Homo sapiens, UniProt Q96GD4); experiment: Eurofins kinase enzymatic radiometric assay; format: biochemical; set-up: purchased Eurofins; settings: Km of ATP, 9-point curve in duplicate
Source text: as §1, §2

PIM3 = PIM3 (Homo sapiens, UniProt Q86V86); experiment: Eurofins kinase enzymatic radiometric assay; format: biochemical; set-up: purchased Eurofins; settings: Km of ATP, 9-point curve in duplicate
Source text: as §1, §2

FLT3 = FLT3 (Homo sapiens, UniProt P36888); experiment: Eurofins kinase enzymatic radiometric assay; format: biochemical; set-up: purchased Eurofins; settings: Km of ATP, 9-point curve in duplicate
Source text: as §1, §2

SGK1/SGK = SGK1/SGK (Homo sapiens, UniProt O00141); experiment: Eurofins kinase enzymatic radiometric assay; format: biochemical; set-up: purchased Eurofins; settings: Km of ATP, 9-point curve in duplicate
Source text: as §1, §2

MAP3K11/MLK3 = MAP3K11/MLK3 (Homo sapiens, UniProt Q16584); experiment: Eurofins kinase enzymatic radiometric assay; format: biochemical; set-up: purchased Eurofins; settings: Km of ATP, 9-point curve in duplicate
Source text: as §1, §2

CHEK1 = molecular target: T3, CHEK1 (Homo sapiens, UniProt O14757); experiment: DiscoverX scanMAX competition binding assay; settings: read-out: % inhibition at 1 μM
T3 construct: purchased Eurofins DiscoverX Corporation

NUAK1/ARK5, sequence (O60285 whole entry): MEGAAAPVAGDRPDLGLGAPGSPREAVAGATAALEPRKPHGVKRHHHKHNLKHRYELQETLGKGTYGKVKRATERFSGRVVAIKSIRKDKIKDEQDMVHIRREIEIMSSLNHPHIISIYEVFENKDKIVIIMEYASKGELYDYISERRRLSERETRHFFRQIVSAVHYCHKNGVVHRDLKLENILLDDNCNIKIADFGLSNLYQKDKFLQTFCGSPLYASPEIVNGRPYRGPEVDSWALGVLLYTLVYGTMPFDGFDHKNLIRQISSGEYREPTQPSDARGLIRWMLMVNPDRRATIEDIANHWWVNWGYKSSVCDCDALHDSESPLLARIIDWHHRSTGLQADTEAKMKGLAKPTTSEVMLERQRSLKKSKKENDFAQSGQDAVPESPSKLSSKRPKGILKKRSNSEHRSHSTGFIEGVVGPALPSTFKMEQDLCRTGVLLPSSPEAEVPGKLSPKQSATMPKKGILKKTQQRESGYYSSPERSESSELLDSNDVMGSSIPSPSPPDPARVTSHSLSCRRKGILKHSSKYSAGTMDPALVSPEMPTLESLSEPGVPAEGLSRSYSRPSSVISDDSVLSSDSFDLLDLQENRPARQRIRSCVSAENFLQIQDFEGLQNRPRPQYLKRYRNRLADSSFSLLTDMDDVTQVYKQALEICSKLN
DCLK3/DCAMKL3, sequence (Q9C098 whole entry): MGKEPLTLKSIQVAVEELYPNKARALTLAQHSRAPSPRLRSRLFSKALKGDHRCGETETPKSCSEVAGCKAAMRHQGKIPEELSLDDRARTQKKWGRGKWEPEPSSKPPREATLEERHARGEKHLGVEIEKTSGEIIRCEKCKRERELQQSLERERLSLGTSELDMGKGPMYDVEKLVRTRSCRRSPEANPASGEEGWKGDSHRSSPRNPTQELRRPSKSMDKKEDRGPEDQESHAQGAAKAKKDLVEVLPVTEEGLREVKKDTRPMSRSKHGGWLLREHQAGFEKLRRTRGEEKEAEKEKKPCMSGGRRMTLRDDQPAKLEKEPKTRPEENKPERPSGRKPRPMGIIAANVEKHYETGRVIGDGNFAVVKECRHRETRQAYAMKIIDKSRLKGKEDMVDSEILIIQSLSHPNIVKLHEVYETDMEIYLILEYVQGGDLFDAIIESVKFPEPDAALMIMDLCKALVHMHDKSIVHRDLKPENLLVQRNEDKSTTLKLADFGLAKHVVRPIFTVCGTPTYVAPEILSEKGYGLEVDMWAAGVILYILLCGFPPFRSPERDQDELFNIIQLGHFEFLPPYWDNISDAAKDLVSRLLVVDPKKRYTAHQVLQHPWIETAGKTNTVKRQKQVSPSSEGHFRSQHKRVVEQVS
PDGFRB, sequence (P09619 33-1106): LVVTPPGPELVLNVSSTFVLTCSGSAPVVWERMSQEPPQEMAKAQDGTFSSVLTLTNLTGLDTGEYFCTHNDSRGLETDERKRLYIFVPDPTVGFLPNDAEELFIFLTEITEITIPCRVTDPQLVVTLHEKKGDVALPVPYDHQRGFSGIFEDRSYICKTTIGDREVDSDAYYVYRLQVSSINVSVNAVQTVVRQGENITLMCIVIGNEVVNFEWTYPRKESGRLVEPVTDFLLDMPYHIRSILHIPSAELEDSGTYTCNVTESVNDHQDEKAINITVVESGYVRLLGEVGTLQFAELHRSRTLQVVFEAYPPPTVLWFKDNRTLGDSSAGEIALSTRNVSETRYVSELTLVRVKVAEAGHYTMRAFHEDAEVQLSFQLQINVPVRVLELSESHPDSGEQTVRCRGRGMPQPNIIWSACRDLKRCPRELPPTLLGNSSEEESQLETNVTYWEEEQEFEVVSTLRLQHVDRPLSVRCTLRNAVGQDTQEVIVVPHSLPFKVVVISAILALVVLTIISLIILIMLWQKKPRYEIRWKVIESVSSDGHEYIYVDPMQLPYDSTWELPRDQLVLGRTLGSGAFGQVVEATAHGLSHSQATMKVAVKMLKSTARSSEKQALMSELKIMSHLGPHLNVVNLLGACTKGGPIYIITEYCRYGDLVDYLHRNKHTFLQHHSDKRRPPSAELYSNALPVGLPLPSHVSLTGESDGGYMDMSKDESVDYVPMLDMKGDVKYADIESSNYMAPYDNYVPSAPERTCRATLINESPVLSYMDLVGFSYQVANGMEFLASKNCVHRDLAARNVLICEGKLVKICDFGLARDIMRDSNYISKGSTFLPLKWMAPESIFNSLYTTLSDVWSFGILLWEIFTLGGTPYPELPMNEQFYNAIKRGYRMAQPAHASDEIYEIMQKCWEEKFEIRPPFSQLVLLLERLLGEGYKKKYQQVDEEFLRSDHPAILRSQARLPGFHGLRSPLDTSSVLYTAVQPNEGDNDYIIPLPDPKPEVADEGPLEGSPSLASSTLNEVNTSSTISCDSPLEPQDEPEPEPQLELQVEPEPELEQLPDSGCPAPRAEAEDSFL
MYLK/MLCK/smMLCK, sequence (Q15746 whole entry): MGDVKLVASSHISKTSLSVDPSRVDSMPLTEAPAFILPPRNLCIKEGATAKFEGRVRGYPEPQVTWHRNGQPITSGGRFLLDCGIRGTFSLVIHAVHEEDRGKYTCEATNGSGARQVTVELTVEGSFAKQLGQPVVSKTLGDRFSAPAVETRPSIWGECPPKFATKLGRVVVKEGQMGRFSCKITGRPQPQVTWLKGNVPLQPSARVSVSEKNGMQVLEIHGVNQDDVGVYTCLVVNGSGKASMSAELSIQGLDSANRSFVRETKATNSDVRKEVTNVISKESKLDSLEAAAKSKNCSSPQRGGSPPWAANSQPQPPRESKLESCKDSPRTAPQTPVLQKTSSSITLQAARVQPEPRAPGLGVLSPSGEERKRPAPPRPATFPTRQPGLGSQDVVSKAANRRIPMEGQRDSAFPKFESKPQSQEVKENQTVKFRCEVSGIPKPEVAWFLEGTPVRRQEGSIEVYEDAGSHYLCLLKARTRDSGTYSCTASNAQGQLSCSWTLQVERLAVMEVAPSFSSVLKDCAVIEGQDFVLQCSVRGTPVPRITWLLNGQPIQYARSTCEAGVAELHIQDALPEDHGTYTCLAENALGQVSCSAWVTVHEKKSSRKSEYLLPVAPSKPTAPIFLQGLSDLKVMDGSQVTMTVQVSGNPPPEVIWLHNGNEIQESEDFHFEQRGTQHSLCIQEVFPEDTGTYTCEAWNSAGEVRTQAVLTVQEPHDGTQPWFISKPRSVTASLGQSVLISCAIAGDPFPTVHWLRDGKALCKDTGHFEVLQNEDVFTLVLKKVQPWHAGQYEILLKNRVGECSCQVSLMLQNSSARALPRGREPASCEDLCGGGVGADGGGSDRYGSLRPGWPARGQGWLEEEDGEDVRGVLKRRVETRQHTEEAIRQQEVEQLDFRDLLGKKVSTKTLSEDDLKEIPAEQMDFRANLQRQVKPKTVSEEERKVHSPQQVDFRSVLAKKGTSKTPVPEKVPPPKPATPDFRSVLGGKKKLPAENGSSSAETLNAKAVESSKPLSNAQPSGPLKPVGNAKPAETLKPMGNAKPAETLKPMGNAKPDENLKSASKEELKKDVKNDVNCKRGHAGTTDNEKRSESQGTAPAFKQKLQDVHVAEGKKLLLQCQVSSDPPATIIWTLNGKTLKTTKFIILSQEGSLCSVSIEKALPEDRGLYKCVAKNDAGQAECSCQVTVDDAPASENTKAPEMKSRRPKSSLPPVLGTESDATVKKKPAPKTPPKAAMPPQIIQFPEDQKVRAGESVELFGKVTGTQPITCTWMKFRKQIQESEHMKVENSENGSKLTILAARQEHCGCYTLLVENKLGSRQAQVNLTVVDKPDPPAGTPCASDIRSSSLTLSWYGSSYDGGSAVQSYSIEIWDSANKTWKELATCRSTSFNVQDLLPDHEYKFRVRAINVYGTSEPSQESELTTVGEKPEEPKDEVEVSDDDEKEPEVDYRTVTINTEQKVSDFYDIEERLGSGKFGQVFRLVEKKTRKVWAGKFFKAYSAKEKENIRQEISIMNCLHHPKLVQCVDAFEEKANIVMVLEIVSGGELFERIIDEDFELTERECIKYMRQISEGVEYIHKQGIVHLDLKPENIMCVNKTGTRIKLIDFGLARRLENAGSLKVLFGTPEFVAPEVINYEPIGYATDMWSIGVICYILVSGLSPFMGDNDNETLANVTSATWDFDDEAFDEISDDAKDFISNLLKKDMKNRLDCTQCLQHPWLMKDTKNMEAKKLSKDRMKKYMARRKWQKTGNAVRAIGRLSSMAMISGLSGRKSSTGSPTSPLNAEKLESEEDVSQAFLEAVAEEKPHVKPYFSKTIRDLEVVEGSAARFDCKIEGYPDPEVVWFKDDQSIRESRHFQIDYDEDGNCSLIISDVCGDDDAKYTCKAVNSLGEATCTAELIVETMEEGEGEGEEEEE
SGK1/SGK, sequence (O00141 whole entry): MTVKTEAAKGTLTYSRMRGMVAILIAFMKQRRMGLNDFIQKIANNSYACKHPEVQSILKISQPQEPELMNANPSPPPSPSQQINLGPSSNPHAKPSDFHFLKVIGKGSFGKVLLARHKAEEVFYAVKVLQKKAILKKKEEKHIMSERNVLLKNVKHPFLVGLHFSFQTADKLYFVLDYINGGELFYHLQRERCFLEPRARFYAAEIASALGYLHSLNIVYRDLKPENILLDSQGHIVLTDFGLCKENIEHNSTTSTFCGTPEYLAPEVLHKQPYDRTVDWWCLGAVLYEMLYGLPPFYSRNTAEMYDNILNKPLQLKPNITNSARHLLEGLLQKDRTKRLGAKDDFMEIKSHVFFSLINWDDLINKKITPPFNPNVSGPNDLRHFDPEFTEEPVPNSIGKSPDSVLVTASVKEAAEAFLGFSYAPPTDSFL

Q: Which IC50 (MAP4K4/HGK) does the source give for `COc1ccc2[nH]c3c4[nH]c5ccc(OC)cc5c4c4c(c3c2c1)C(=O)NC4=O` [GW296115] here?
A: Its IC50 is 29 nM.

Q: And the IC50 (MAP3K9/MLK1)?
A: Its IC50 is 26 nM.

Q: And the IC50 (DCLK3/DCAMKL3)?
A: The IC50 was 89 nM.

Q: And the IC50 (NUAK1/ARK5)?
A: Its IC50 is 15 nM.

Q: And the IC50 (PDGFRB)?
A: The IC50 was over 10 µM.

Q: What about the IC50 (TNIK) of the same molecule?
A: The IC50 was 10 nM.

Q: What about the IC50 (MYLK/MLCK/smMLCK) of the same molecule?
A: The IC50 was 49 nM.

Q: And the IC50 (BRSK2)?
A: The IC50 was 8.4 nM.

Q: And the IC50 (BRSK1)?
A: The IC50 was 21 nM.

Q: And the IC50 (AURKB)?
A: The IC50 was 94 nM.

Q: And the IC50 (PIM3)?
A: Its IC50 is 89 nM.

Q: What about the IC50 (FLT3) of the same molecule?
A: The IC50 was 37 nM.

Q: What about the IC50 (SGK1/SGK) of the same molecule?
A: Its IC50 is 710 nM.

Q: What about the IC50 (MAP3K11/MLK3) of the same molecule?
A: Its IC50 is 1.5 nM.

Q: What about the inhibition at 1 µM (CHEK1) of the same molecule?
A: Its inhibition at 1 µM is 70%.
